# Measurements: ChEMBL document CHEMBL1201862, “PubChem BioAssay data set” (2004)
#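 Growth conditions: 96-well plates. Treatment: test compound, 48 hours, 5 concentrations. Analysis: linear interpolation between bracketing concentrations; unreached endpoints set to highest concentration. Abbreviation: GI50, concentration required for 50% inhibition of growth.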 Active and inactive are the calls of the source. Cut-off read from the data, not from the text of the source: active = GI50 up to about 1.1 µM and inactive = higher.
# Columns and labels:
# Experiment in all cases: DTP human tumour cell line panel, 48 h
# SNB-19 = system: SNB-19
# RPMI-8226 = system: RPMI-8226
# OVCAR-5 = system: OVCAR-5
# SK-MEL-5 = system: SK-MEL-5
# SNB-75 = system: SNB-75
# HT-29 = system: HT-29
# CCRF-CEM = system: CCRF-CEM
# NCI-H226 = system: NCI-H226
# RXF 631 = system: RXF 631
# UACC-62 = system: UACC-62
# SK-MEL-28 = system: SK-MEL-28
# DMS-273 = system: DMS-273
# LOX IMVI = system: LOX IMVI
# UO-31 = system: UO-31
# KM-20L2 = system: KM-20L2
# SK-OV-3 = system: SK-OV-3
# HCT-15 = system: HCT-15
# NCI-H23 = system: NCI-H23
# SF-539 = system: SF-539
# DMS-114 = system: DMS-114
# IGROV-1 = system: IGROV-1
# EKVX = system: EKVX
# SF-295 = system: SF-295
# U-251 = system: U-251
# HCC 2998 = system: HCC 2998
# SK-MEL-2 = system: SK-MEL-2
# COLO 205 = system: COLO 205
# XF498 = system: XF498
# NCI-H522 = system: NCI-H522
# SNB-78 = system: SNB-78
# UACC-257 = system: UACC-257
# M14 = system: M14
# LXFL 529 = system: LXFL 529
# SW-620 = system: SW-620
# SN12C = system: SN12C
# K562 = system: K562
# Malme-3M = system: Malme-3M
# HOP-62 = system: HOP-62
# HOP-18 = system: HOP-18
# OVCAR-3 = system: OVCAR-3
# NCI-H460 = system: NCI-H460
# TK-10 = system: TK-10
# M19-MEL = system: M19-MEL
# HL-60 = system: HL-60
# ACHN = system: ACHN
# MOLT-4 = system: MOLT-4
# 786-0 = system: 786-0
# KM12 = system: KM12
# HOP-92 = system: HOP-92
# OVCAR-8 = system: OVCAR-8
# SF-268 = system: SF-268
# SR = system: SR
# A549 = system: A549
# RXF 393 = system: RXF 393
# CAKI-1 = system: CAKI-1
# A498 = system: A498
# DLD-1 = system: DLD-1
# HCT-116 = system: HCT-116
# OVCAR-4 = system: OVCAR-4
smiles,measurement,setting,value
OCc1c(-c2cccc3ccccc23)sc(-c2cccc3ccccc23)c1CO,GI50,SNB-19,12.5 µM (inactive)
same,GI50,RPMI-8226,6.9 µM (inactive)
same,GI50,OVCAR-5,17 µM (inactive)
same,GI50,SK-MEL-5,11.3 µM (inactive)
same,GI50,SNB-75,14.3 µM (inactive)
same,GI50,HT-29,15.3 µM (inactive)
same,GI50,CCRF-CEM,6.41 µM (inactive)
same,GI50,NCI-H226,16.7 µM (inactive)
same,GI50,RXF 631,18.2 µM (inactive)
same,GI50,UACC-62,11.3 µM (inactive)
same,GI50,SK-MEL-28,10.4 µM (inactive)
same,GI50,DMS-273,15.2 µM (inactive)
same,GI50,LOX IMVI,14.6 µM (inactive)
same,GI50,UO-31,11.1 µM (inactive)
same,GI50,KM-20L2,11.7 µM (inactive)
same,GI50,SK-OV-3,15.2 µM (inactive)
same,GI50,HCT-15,14.7 µM
same,GI50,NCI-H23,14.5 µM (inactive)
same,GI50,SF-539,15.3 µM (inactive)
same,GI50,DMS-114,9.1 µM (inactive)
same,GI50,IGROV-1,14.1 µM (inactive)
same,GI50,EKVX,11.3 µM (inactive)
same,GI50,SF-295,14.1 µM (inactive)
same,GI50,U-251,12.2 µM (inactive)
same,GI50,HCC 2998,18.1 µM (inactive)
same,GI50,SK-MEL-2,14.6 µM (inactive)
same,GI50,COLO 205,11.6 µM (inactive)
same,GI50,XF498,6.89 µM (inactive)
same,GI50,NCI-H522,10.5 µM (inactive)
same,GI50,SNB-78,16.2 µM (inactive)
same,GI50,UACC-257,12.8 µM (inactive)
same,GI50,M14,14.5 µM (inactive)
same,GI50,LXFL 529,14 µM (inactive)
same,GI50,SW-620,15.6 µM (inactive)
same,GI50,SN12C,13.5 µM (inactive)
same,GI50,K562,6.5 µM (inactive)
same,GI50,Malme-3M,12.2 µM (inactive)
same,GI50,HOP-62,13 µM (inactive)
same,GI50,HOP-18,13.5 µM (inactive)
same,GI50,OVCAR-3,13.4 µM (inactive)
same,GI50,NCI-H460,14.3 µM (inactive)
same,GI50,TK-10,13.1 µM (inactive)
same,GI50,M19-MEL,15.5 µM (inactive)
same,GI50,HL-60,15.5 µM (inactive)
same,GI50,ACHN,12.3 µM (inactive)
same,GI50,MOLT-4,9.04 µM (inactive)
same,GI50,786-0,14 µM (inactive)
same,GI50,KM12,12.4 µM (inactive)
same,GI50,HOP-92,15.1 µM (inactive)
same,GI50,OVCAR-8,13 µM (inactive)
same,GI50,SF-268,13.2 µM (inactive)
same,GI50,SR,13.5 µM (inactive)
N#Cc1c(C(N)=O)ncn1Cc1ccccc1,GI50,SNB-19,> 100 µM (inactive)
same,GI50,RPMI-8226,> 100 µM (inactive)
same,GI50,OVCAR-5,> 100 µM (inactive)
same,GI50,SK-MEL-5,> 100 µM (inactive)
same,GI50,SNB-75,> 100 µM (inactive)
same,GI50,HT-29,> 100 µM (inactive)
same,GI50,A549,> 100 µM (inactive)
same,GI50,CCRF-CEM,> 100 µM (inactive)
same,GI50,NCI-H226,> 100 µM (inactive)
same,GI50,RXF 393,> 100 µM (inactive)
same,GI50,CAKI-1,> 100 µM (inactive)
same,GI50,A498,> 100 µM (inactive)
same,GI50,RXF 631,> 100 µM (inactive)
same,GI50,UACC-62,> 100 µM (inactive)
same,GI50,DMS-273,> 100 µM (inactive)
same,GI50,LOX IMVI,> 100 µM (inactive)
same,GI50,UO-31,> 100 µM (inactive)
same,GI50,KM-20L2,> 100 µM (inactive)
same,GI50,SK-OV-3,> 100 µM (inactive)
same,GI50,HCT-15,> 100 µM
same,GI50,NCI-H23,> 100 µM (inactive)
same,GI50,SF-539,> 100 µM (inactive)
same,GI50,DMS-114,> 100 µM (inactive)
same,GI50,IGROV-1,> 100 µM (inactive)
same,GI50,EKVX,> 100 µM (inactive)
same,GI50,SF-295,> 100 µM (inactive)
same,GI50,U-251,> 100 µM (inactive)
same,GI50,HCC 2998,> 100 µM (inactive)
same,GI50,SK-MEL-2,> 100 µM (inactive)
same,GI50,DLD-1,> 100 µM (inactive)
same,GI50,COLO 205,> 100 µM (inactive)
same,GI50,XF498,> 100 µM (inactive)
same,GI50,NCI-H522,> 100 µM (inactive)
same,GI50,SNB-78,> 100 µM (inactive)
same,GI50,UACC-257,> 100 µM (inactive)
same,GI50,M14,> 100 µM (inactive)
same,GI50,LXFL 529,> 100 µM (inactive)
same,GI50,SW-620,> 100 µM (inactive)
same,GI50,SN12C,> 100 µM (inactive)
same,GI50,K562,> 100 µM (inactive)
same,GI50,Malme-3M,> 100 µM (inactive)
same,GI50,HOP-62,> 100 µM (inactive)
same,GI50,HOP-18,> 100 µM (inactive)
same,GI50,OVCAR-3,> 100 µM (inactive)
same,GI50,NCI-H460,> 100 µM (inactive)
same,GI50,TK-10,> 100 µM (inactive)
same,GI50,M19-MEL,> 100 µM (inactive)
same,GI50,HL-60,> 100 µM (inactive)
same,GI50,ACHN,> 100 µM (inactive)
same,GI50,MOLT-4,> 100 µM (inactive)
same,GI50,786-0,> 100 µM (inactive)
same,GI50,KM12,> 100 µM (inactive)
same,GI50,HOP-92,> 100 µM (inactive)
same,GI50,HCT-116,> 100 µM (inactive)
same,GI50,OVCAR-8,> 100 µM (inactive)
same,GI50,SF-268,> 100 µM (inactive)
same,GI50,OVCAR-4,> 100 µM (inactive)
CCOC(=O)CCC(NC(=O)c1ccc(/N=C/c2nc3ccccc3nc2-c2ccccc2)cc1)C(=O)OCC (configuration not stated),GI50,SNB-19,> 100 µM (inactive)
same,GI50,RPMI-8226,> 100 µM (inactive)
same,GI50,OVCAR-5,> 100 µM (inactive)
same,GI50,SK-MEL-5,> 100 µM (inactive)
same,GI50,SNB-75,20 µM (inactive)
same,GI50,HT-29,> 100 µM (inactive)
same,GI50,A549,> 100 µM (inactive)
same,GI50,CCRF-CEM,> 100 µM (inactive)
same,GI50,NCI-H226,> 100 µM (inactive)
same,GI50,RXF 393,64.9 µM (inactive)
same,GI50,CAKI-1,> 100 µM (inactive)
same,GI50,A498,> 100 µM (inactive)
same,GI50,RXF 631,> 100 µM (inactive)
same,GI50,UACC-62,> 100 µM (inactive)
same,GI50,SK-MEL-28,> 100 µM (inactive)
same,GI50,DMS-273,> 100 µM (inactive)
same,GI50,LOX IMVI,> 100 µM (inactive)
same,GI50,UO-31,> 100 µM (inactive)
same,GI50,KM-20L2,> 100 µM (inactive)
same,GI50,SK-OV-3,> 100 µM (inactive)
same,GI50,HCT-15,> 100 µM
same,GI50,NCI-H23,> 100 µM (inactive)
same,GI50,SF-539,> 100 µM (inactive)
same,GI50,DMS-114,> 100 µM (inactive)
same,GI50,IGROV-1,> 100 µM (inactive)
same,GI50,EKVX,> 100 µM (inactive)
same,GI50,SF-295,> 100 µM (inactive)
same,GI50,U-251,> 100 µM (inactive)
same,GI50,HCC 2998,> 100 µM (inactive)
same,GI50,SK-MEL-2,> 100 µM (inactive)
same,GI50,DLD-1,> 100 µM (inactive)
same,GI50,COLO 205,> 100 µM (inactive)
same,GI50,XF498,> 100 µM (inactive)
same,GI50,NCI-H522,> 100 µM (inactive)
same,GI50,SNB-78,> 100 µM (inactive)
same,GI50,UACC-257,> 100 µM (inactive)
same,GI50,M14,82 µM (inactive)
same,GI50,LXFL 529,> 100 µM (inactive)
same,GI50,SW-620,> 100 µM (inactive)
same,GI50,SN12C,79.1 µM (inactive)
same,GI50,K562,> 100 µM (inactive)
same,GI50,Malme-3M,> 100 µM (inactive)
same,GI50,HOP-62,> 100 µM (inactive)
same,GI50,HOP-18,35.4 µM (inactive)
same,GI50,OVCAR-3,> 100 µM (inactive)
same,GI50,NCI-H460,> 100 µM (inactive)
same,GI50,TK-10,> 100 µM (inactive)
same,GI50,HL-60,> 100 µM (inactive)
same,GI50,ACHN,> 100 µM (inactive)
same,GI50,MOLT-4,> 100 µM (inactive)
same,GI50,786-0,> 100 µM (inactive)
same,GI50,KM12,> 100 µM (inactive)
same,GI50,HOP-92,> 100 µM (inactive)
same,GI50,HCT-116,> 100 µM (inactive)
same,GI50,OVCAR-8,13.9 µM (inactive)
same,GI50,SF-268,> 100 µM (inactive)
same,GI50,OVCAR-4,> 100 µM (inactive)
same,GI50,SR,> 100 µM (inactive)
